Source: ChEMBL document CHEMBL3885861, “Open TG-GATES”

Species on record: Rattus norvegicus
Experiment: Open TG-GATES - Regimen: Single
Assay type: toxicity, organism-based, Sprague-Dawley
Design: regimen Single, gender Male, age 6 weeks
Conditions: in vivo, po, 300 mg/kg, route gavage, dose level Middle; for APTT / Bas / Eos / Fbg / Hb / Ht / Lym / MCH / MCHC / MCV / Mono / Neu / PT / Plat / RBC / Ret / WBC: tissue Blood; for KIDNEY_L / KIDNEY_R / KIDNEY_TOTAL: tissue Kidney; for LIVER: tissue Liver; for A/G / ALP / ALT / AST / BUN / CRE / Ca / Cl / DBIL / GLC / IP / K / LDH / Na / PL / RALB / TBIL / TC / TG / TP / gamma-GTP: tissue Plasma

`O=C(O)COc1nn(Cc2ccccc2)c2ccccc12` [BENDAZAC] showed a TERMINAL_BW (3 h) of 210.1 g, an APTT (3 h) of 17.4 s and a Bas (3 h) of 0%. For the same molecule, the Eos (3 h) was 1%, the Fbg (3 h) was 206.8 mg/dL and the Hb (3 h) was 13.9 g/dL. For the same molecule, the Ht (3 h) was 41.6%, the Lym (3 h) was 80.4% and the MCH (3 h) was 21.7 pg. It also gave an MCHC (3 h) of 33.5%, an MCV (3 h) of 64.7 fL and a Mono (3 h) of 5.2%. The Neu (3 h) was 13.4%, the PT (3 h) was 11.7 s and the Plat (3 h) was 116.9 x10_4/uL. The RBC (3 h) was 643.4 x10_4/ul, the Ret (3 h) was 9.9% and the WBC (3 h) was 91 x10_2/uL. For the same molecule, the KIDNEY_L (3 h) was 1 g, the KIDNEY_R (3 h) was 1 g and the KIDNEY_TOTAL (3 h) was 2 g. The LIVER (3 h) was 9.4 g, the A/G (3 h) was 2.1 and the ALP (3 h) was 1450 IU/L. It also gave an ALT (3 h) of 35.6 IU/L, an AST (3 h) of 69.2 IU/L and a BUN (3 h) of 11.8 mg/dL. The CRE (3 h) was 0.5 mg/dL, the Ca (3 h) was 10.6 mg/dL and the Cl (3 h) was 101 meq/L. The DBIL (3 h) was 0.014 mg/dL, the GLC (3 h) was 189.2 mg/dL and the IP (3 h) was 10.5 mg/dL. It also gave a K (3 h) of 4.9 meq/L, an LDH (3 h) of 105 IU/L and a Na (3 h) of 139.4 meq/L. For the same molecule, the PL (3 h) was 124.4 mg/dL, the RALB (3 h) was 3.6 g/dL and the TBIL (3 h) was 1.3 mg/dL. The TC (3 h) was 71.6 mg/dL, the TG (3 h) was 46 mg/dL and the TP (3 h) was 5.4 g/dL. It also gave a gamma-GTP (3 h) of 1 IU/L, a TERMINAL_BW (6 h) of 207.7 g and an APTT (6 h) of 17.2 s. It also gave a Bas (6 h) of 0%, an Eos (6 h) of 1.4% and a Fbg (6 h) of 214.8 mg/dL. The Hb (6 h) was 13.9 g/dL, the Ht (6 h) was 41.7% and the Lym (6 h) was 78.2%. For the same molecule, the MCH (6 h) was 21.7 pg, the MCHC (6 h) was 33.3% and the MCV (6 h) was 65.1 fL. It also gave a Mono (6 h) of 7.8%, a Neu (6 h) of 13% and a PT (6 h) of 11.9 s. For the same molecule, the Plat (6 h) was 119.6 x10_4/uL, the RBC (6 h) was 641.8 x10_4/ul and the Ret (6 h) was 11.7%. For the same molecule, the WBC (6 h) was 98.8 x10_2/uL, the KIDNEY_L (6 h) was 1 g and the KIDNEY_R (6 h) was 1 g. For the same molecule, the KIDNEY_TOTAL (6 h) was 2 g, the LIVER (6 h) was 8.9 g and the A/G (6 h) was 2.3. For the same molecule, the ALP (6 h) was 3422.2 IU/L, the ALT (6 h) was 30.2 IU/L and the AST (6 h) was 60.8 IU/L. The BUN (6 h) was 8.8 mg/dL, the CRE (6 h) was 0.6 mg/dL and the Ca (6 h) was 10.9 mg/dL. It also gave a Cl (6 h) of 101.8 meq/L, a DBIL (6 h) of 0.066 mg/dL and a GLC (6 h) of 189.6 mg/dL. For the same molecule, the IP (6 h) was 10.7 mg/dL, the K (6 h) was 4.9 meq/L and the LDH (6 h) was 97 IU/L. The Na (6 h) was 141.2 meq/L, the PL (6 h) was 135.4 mg/dL and the RALB (6 h) was 3.8 g/dL. It also gave a TBIL (6 h) of 1.5 mg/dL, a TC (6 h) of 78.2 mg/dL and a TG (6 h) of 27 mg/dL. It also gave a TP (6 h) of 5.4 g/dL, a gamma-GTP (6 h) of 1 IU/L and a TERMINAL_BW (9 h) of 200.4 g. For the same molecule, the APTT (9 h) was 17.2 s, the Bas (9 h) was 0% and the Eos (9 h) was 1%. The Fbg (9 h) was 205 mg/dL, the Hb (9 h) was 14 g/dL and the Ht (9 h) was 41.8%. It also gave a Lym (9 h) of 81.8%, an MCH (9 h) of 22.3 pg and an MCHC (9 h) of 33.4%. The MCV (9 h) was 66.8 fL, the Mono (9 h) was 5.2% and the Neu (9 h) was 12%. For the same molecule, the PT (9 h) was 11.8 s, the Plat (9 h) was 121.4 x10_4/uL and the RBC (9 h) was 626.2 x10_4/ul. It also gave a Ret (9 h) of 8.8%, a WBC (9 h) of 86.7 x10_2/uL and a KIDNEY_L (9 h) of 0.9 g. The KIDNEY_R (9 h) was 1 g, the KIDNEY_TOTAL (9 h) was 1.9 g and the LIVER (9 h) was 7.8 g. It also gave an A/G (9 h) of 2.1, an ALP (9 h) of 2047.2 IU/L and an ALT (9 h) of 29 IU/L. For the same molecule, the AST (9 h) was 60.2 IU/L, the BUN (9 h) was 9.6 mg/dL and the CRE (9 h) was 0.6 mg/dL. It also gave a Ca (9 h) of 10.3 mg/dL, a Cl (9 h) of 103.6 meq/L and a DBIL (9 h) of 0.028 mg/dL. It also gave a GLC (9 h) of 183.8 mg/dL, an IP (9 h) of 10 mg/dL and a K (9 h) of 4.7 meq/L. It also gave an LDH (9 h) of 94.4 IU/L, a Na (9 h) of 143 meq/L and a PL (9 h) of 126 mg/dL. It also gave an RALB (9 h) of 3.7 g/dL, a TBIL (9 h) of 1.2 mg/dL and a TC (9 h) of 72.4 mg/dL. For the same molecule, the TG (9 h) was 39.4 mg/dL, the TP (9 h) was 5.5 g/dL and the gamma-GTP (9 h) was 1.2 IU/L. For the same molecule, the TERMINAL_BW (24 h) was 220.3 g, the APTT (24 h) was 16.8 s and the Bas (24 h) was 0%. It also gave an Eos (24 h) of 1%, a Fbg (24 h) of 208.6 mg/dL and a Hb (24 h) of 13.6 g/dL. For the same molecule, the Ht (24 h) was 40.7%, the Lym (24 h) was 78.6% and the MCH (24 h) was 21.3 pg. For the same molecule, the MCHC (24 h) was 33.3%, the MCV (24 h) was 63.9 fL and the Mono (24 h) was 9.6%. For the same molecule, the Neu (24 h) was 11%, the PT (24 h) was 12.2 s and the Plat (24 h) was 120.5 x10_4/uL. It also gave an RBC (24 h) of 637.8 x10_4/ul, a Ret (24 h) of 8% and a WBC (24 h) of 98.3 x10_2/uL. For the same molecule, the KIDNEY_L (24 h) was 1 g, the KIDNEY_R (24 h) was 1 g and the KIDNEY_TOTAL (24 h) was 2 g. For the same molecule, the LIVER (24 h) was 11.3 g, the A/G (24 h) was 2.2 and the ALP (24 h) was 1529.6 IU/L. For the same molecule, the ALT (24 h) was 39 IU/L, the AST (24 h) was 71.2 IU/L and the BUN (24 h) was 19.8 mg/dL. It also gave a CRE (24 h) of 0.6 mg/dL, a Ca (24 h) of 11 mg/dL and a Cl (24 h) of 104 meq/L. For the same molecule, the DBIL (24 h) was 0.006 mg/dL, the GLC (24 h) was 187.2 mg/dL and the IP (24 h) was 6.3 mg/dL. For the same molecule, the K (24 h) was 4.5 meq/L, the LDH (24 h) was 123.4 IU/L and the Na (24 h) was 140 meq/L. The PL (24 h) was 132 mg/dL, the RALB (24 h) was 3.8 g/dL and the TBIL (24 h) was 1 mg/dL. It also gave a TC (24 h) of 66.8 mg/dL, a TG (24 h) of 111 mg/dL and a TP (24 h) of 5.5 g/dL. The gamma-GTP (24 h) was 1 IU/L.
